Results: paper PMC9006954, “Computer-Based Immunoinformatic Analysis to Predict Candidate T-Cell Epitopes for SARS-CoV-2 Vaccine Design” (Frontiers in Immunology, 2022)
Where no end group is shown, it is not given here.

Target: T1, HLA-A*11:01 protein (Homo sapiens, UniProt P04439, A114D/D185E/E176A/F33Y/L180Q/S129P/T187R)
T1 construct: biotin (biotinylated)
Assay: Bio-Layer Interferometry (BLI) affinity test, Octet R8
Settings: Octet R8, SSA sensors, peptides 100-3.125 µM in PBST (PBS+0.02%Tween20+1% DMSO), balance, binding, dissociation 60 s each

Row | Sequence | Kd [µM] | KD | KD (listed as 13[…]21)
1 | FSTFKCYGL | 5.95 |  | 
2 | GLSPTKLNDL | 319 |  | 
3 | KCYGLSPTK | 23 |  | 
4 | SQCVNFTTR |  | Non-binding | not detected
